# Assay results as given in patent publication US20100061994A1, “MEDICAL USES OF 39-DESMETHOXYRAPAMYCIN AND ANALOGUES THEREOF” (priority 2005, published 2010).
# Where “and” joins values, the source holds several entries; their conditions need not be identical. Equal values may be shown once. Read-outs that look alike come from different tables or passages of the source.
# Key:
# FKBP12 = FKBP12 (Homo sapiens, UniProt P62942); test: In vitro FKBP12 binding assay (GdnHCl unfolding)
# Source text: FKBP12 reversibly unfolds in the chemical denaturant guandinium hydrochloride (GdnHCl) and the unfolding can be monitored by the change in the intrinsic fluorescence of the protein (Main et al, 1998). Ligands which specifically bind and stabilise the native state of FKBP12 shift the denaturation curve such that the protein unfolds at higher concentrations of chemical denaturant (Main et al, 1999). From the difference in stability, the ligand-binding constant can be determined using equation 1.
# where ΔGapp is the apparent difference in free energy of unfolding between free and ligand-bound forms, ΔGD−N^H^2^O is the free energy of unfolding in water of free protein, [L] the concentration of ligand and kd the dissociation constant for the protein-ligand complex (Meiering et al, 1992). The free energy of unfolding can be related to the midpoint of the unfolding transition using the following equation: […]
# where mD−N is a constant for a given protein and given denaturant and which is proportional to the change in degree of exposure of residues on unfolding (Tanford 1968 and Tanford 1970), and [D]50% is the concentration of denaturant corresponding to the midpoint of unfolding.
# where <mD−N> is the average m-value of the unfolding transition and Δ[D]50% the difference in midpoints for the rapamycin-FKBP12 unfolding transition and unknown-ligand-FKBP12 complex unfolding transition. Under conditions where [L]>Kd, then, ΔΔGD−N, can be related to the relative Kds of the two compounds through equation 4: […]
# Caco-2 permeation assay = details: human, Caco-2, pH 7.4
# Procedure: (§1) Confluent Caco-2 cells (Li, A. P., 1992; Grass, G. M., et al., 1992, Volpe, D. A., et al., 2001) in a 24 well Corning Costar Transwell format were provided by In Vitro Technologies Inc. (IVT Inc., Baltimore, Md., USA). The apical chamber contained 0.15 mL Hank's balanced buffer solution (HBBS) pH 7.4, 1% DMSO, 0.1 mM Lucifer Yellow. The basal chamber contained 0.6 mL HBBS pH 7.4, 1% DMSO. Controls and tests were incubated at 37° C. in a humidified incubator, shaken at 130 rpm for 1 h. Lucifer Yellow permeates via the paracellular (between the tight junctions) route only, a high Apparent Permeability (Papp) for Lucifer Yellow indicates cellular damage during assay and all such wells were rejected. […] Compounds were tested in a uni- and bi-directional format by applying compound to the apical or basal chamber (at 0.01 mM). Compounds in the apical or basal chambers were analysed by HPLC-MS (Method A, see Materials & Methods). Results were expressed as Apparent Permeability, Papp, (nm/s) and as the Flux Ratio (A to B versus B to A).
# (§2) [formula] • Volume Acceptor: 0.6 ml (A>B) and 0.15 ml (B>A) • Area of monolayer: 0.33 cm2 • Δtime: 60 min
# (§3) A positive value for the Flux Ratio indicates active efflux from the apical surface of the cells.
# [1] = Pharmacokinetic analysis Protocol 1 (blood and brain); details: female, CD1, mouse, 3 mg/kg
# Procedure: The test compounds were prepared in a vehicle consisting of 4% Ethanol, 5% Tween-20, 5% polyethyleneglycol 400 in 0.15M NaCl. A single dbse of 10 mg/kg p.o. or 3 mg/kg i.v. was administered to groups of female CD1 mice (3 mice for each compound per time point). At 0 min, 4 min, 15 min, 1 h, 4 h, and 24 h groups were sacrificed and the blood and the brain were collected from each mouse for further analysis.
# The brain samples were snap frozen in liquid nitrogen and stored at −20° C. A minimum of 0.2 mL of whole blood from each animal was collected in tubes containing ethylene diamine tetra-acetic acid (EDTA) as anticoagulant, thoroughly mixed, and stored at −20° C.
# Analysis was performed by ASI Limited, (St George's Hospital Medical School, London). The concentration of the test compound in the blood and brain samples supplied was determined by HPLC with MS detection. Control, test compound free, blood samples were obtained from Harlan Sera-Lab Limited, (Loughborough, England). Time zero brain samples were supplied as control, test compound free, brain samples.
# One hemisphere of each brain was homogenized with 5 mL water.
# The control or test sample of mouse brain or blood (0.05 mL), internal standard solution (0.1 mL), 5% Zinc sulphate solution (0.5 mL), and acetone (0.5 mL) were pipetted into a 2 mL polypropylene tube (Sarstedt Limited, Beaumont Leys, Leicester, UK) and the contents were then mixed for a minimum of 5 minutes (IKA-Vibrax-VXR mixer, Merck (BDH) Limited, Poole Dorset, UK). The tubes were then centrifuged in a microfuge for a minimum of 2 minutes. The solvent layer was decanted into a 4.5 mL polypropylene tube containing sodium hydroxide (0.1M, 0.1 mL) and methyl-tert-butyl ether (MTBE, 2 mL). The tube was then mixed for a minimum of 5 minutes (IKA-Vibrax-VXR mixer) and then centrifuged at 3500 rpm for 5 minutes. The solvent layer was transferred to a 4.5 mL conical polypropylene tube, placed in a SpeedVac® and evaporated to dryness.
# The dried extracts were reconstituted with 0.15 mL 80% methanol and mixed for a minimum of 5 minutes (IKA-Vibrax-VXR mixer) and centrifuged at 3500 rpm for 5 minutes. The extract was transferred to auto sampler tubes (NLG Analytical, Adelphi Mill, Bollington, Cheshire, UK) and placed into the auto-sampler tray which was set at ambient temperature. The auto-sampler was programmed to inject a 0.03 mL aliquot of each extract onto the analytical column.
# The AUC for each compound in blood or in brain tissue was calculated using Kinetica 4.4 (InnaPhase Corporation), using a non-compartmental model and the trapezoidal method for AUC calculation.
# The partition coefficient (Ri) for each compound after p.o. and i.v. administration was calculated as shown below:
# The partition coefficient (R) for each compound after i.v. administration was calculated as shown below:
# [2] = Human Liver Microsomal (HLM) stability assay; type: in vitro ADME; details: 0.001 mM, 0.25 mg/mL protein, NADPH, 37° C.
# Procedure: Liver homogenates provide a measure of a compounds inherent vulnerability to Phase I (oxidative) enzymes, including CYP450s (e.g. CYP2C8, CYP2D6, CYP1A, CYP3A4, CYP2E1), esterases, amidases and flavin monooxygenases (FMOs).
# The half life (T½) of test compounds was determined, on exposure to Human Liver Microsomes, by monitoring their disappearance over time by LC-MS. Compounds at 0.001 mM were incubated at for 40 min at 37° C., 0.1 M Tris-HCl, pH 7.4 with human microsomal sub-cellular fraction of liver at 0.25 mg/mL protein and saturating levels of NADPH as co-factor. At timed intervals, acetonitrile was added to test samples to precipitate protein and stop metabolism. Samples were centrifuged and analysed for parent compound using analytical Method A (see Materials & Methods).
# EAE = test: Experimental allergic encephalomyelitis (EAE) model of multiple sclerosis; type: in vivo, male Lewis rats; details: rat, in vivo
# Caco-2 cells = test: Caco-2 permeation assay; details: 0.01 mM
# Procedure: as §1, §2, §3
# [3] = relative to literature Kd of rapamycin 0.2 nM
# Sequence of FKBP12 (P62942 whole entry, species assumed): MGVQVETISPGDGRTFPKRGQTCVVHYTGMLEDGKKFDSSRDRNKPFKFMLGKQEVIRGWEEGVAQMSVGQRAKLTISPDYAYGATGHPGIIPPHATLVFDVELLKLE
compound,measurement,setting,value
CO[C@H]1CC2CC[C@@H](C)[C@@](O)(O2)C(=O)C(=O)N2CCCC[C@H]2C(=O)O[C@H]([C@@H](C)CC2CCC(O)CC2)CC(=O)[C@@H](C)/C=C(\C)[C@H](O)[C@H](O)C(=O)[C@@H](C)C[C@H](C)/C=C/C=C/C=C/1C (some centres unmarked) [27-O-desmethyl-39-desmethoxyrapamycin],Kd,FKBP12; [3],0.8 nM
same,"Papp at 1 h, 0.01 mM",Caco-2 permeation assay,0.4 ×10⁻⁶ cm/s
same,"efflux ratio at 1 h, 0.01 mM",Caco-2 permeation assay,91
same,Kp,"[1]; brain / whole blood, intravenous",4.56
same,AUC,"[1]; whole blood, iv",1850 ng·h/mL
same,half-life at 0.001 mM,"[2]; human, liver microsomes, pH 7.4, read-out: HLM stability: T½ min",27 min
"O=P1(N(CCCl)CCCl)NCCCO1 (centres unmarked) [Cyclophosphamide, reference compound]",Cumulative score Mean ± St Dev.,EAE,33 ± 14.1 and 37 ± 26.6
same,Duration (days) Mean ± St Dev.,EAE,13 ± 3.4 days and 15 ± 3.2 days
same,Onset Mean ± St Dev.,EAE,13 ± 2.6 and 11 ± 1.1
16-O-desmethyl-27-O-desmethyl-39-desmethoxyrapamycin,Kd,FKBP12; [3],101 nM
same,Caco-2: Efflux Ratio,Caco-2 cells; bi-directional format,37
same,Caco-2: Papp,"Caco-2 cells; pH 7.4, 1 h",13 nm/s
same,HLM stability: T½ min,[2],47 min
COC1CC2CCC(C)C(O)(O2)C(=O)C(=O)N2CCCCC2C(=O)OC(C(C)CC2CCC(O)CC2)CC(=O)C(C)C=C(C)C(O)CC(=O)C(C)CC(C)C=CC=CC=C1C (centres unmarked) [27-desmethoxy-39-desmethoxy rapamycin],Kd,FKBP12,160 nM
